Experiments:
Plasmopara viticola = assay: Test Example G: Downy mildew on vine; conditions: Plasmopara viticola, topical, read-out: Test G control value class
Description: Seeds of a test plant (grape variety: Neomuscat) were planted and cultivated until three to four first leaves appeared. In the test, the inventive compounds were dissolved into dimethyl sulfoxide-methanol mixture solution (volume ratio: 9/1), and the resultant solutions were diluted with well water to a concentration of 250 ppm to obtain the drug solutions. The drug solutions were sprayed to the test plant (2.5 ml/pot). After the drug solutions dried, a zoosporangia suspension (1-2×10^4 zoosporangia/ml) of Plasmopara viticola was inoculated to the plant by spraying. After the inoculation, the plant was kept in a mist chamber at room temperature of 20° C. for about 24 hours to promote the onset of disease. The degrees of disease development were investigated 7 to 10 days after the inoculation, and the effectiveness of the drug solutions was evaluated.
In Test Examples described above, the degrees of disease development were evaluated in increments of 0.05 from 0 (as no incidence of disease) to 3 (as the degree of disease development in an untreated plant group). Further, control values were calculated using the following equation based on the degree of disease development.
n=Degree of disease development in each treated group

[1] = tested on: Colletotrichum orbiculare; assay: Test Example H: Anthracnose on cucumber; conditions: Colletotrichum orbiculare, in Cucumis sativus, topical, read-out: Test H control value class
Magnaporthe grisea = assay: whole plant or invertebrate; assay type: in vivo; conditions: Pyricularia oryzae, in Oryza sativa, read-out: Test A control value class
Phytophthora infestans = assay: whole plant or invertebrate; assay type: in vivo; conditions: Phytophthora infestans, in Solanum lycopersicum, topical, read-out: Test F control value class
Alternaia brassicicola = assay: Test Example C: Alternaria sooty spot on cabbage; assay type: in vivo; conditions: Brassica oleracea, topical; Alternaria sooty spot on cabbage; class of control value; read-out: Test C control value class
From the text: Seeds of a test plant (cabbage variety: Shikidori) were planted and cultivated until the cotyledons extended.
<Control Value> Control value=100{1−(n/3)}

Botrytis cinerea = assay: Test Example B: Gray mold on tomato; conditions: Botrytis cinerea, in Solanum lycopersicum, topical, read-out: Test B control value class
[2] = tested on: Blumeria graminis f. sp. hordei; assay: Test Example D: Powdery mildew on barley; conditions: Blumeria graminis, in Hordeum vulgare, topical, read-out: Test D control value class
Puccinia recondita = assay: Test Example E: Brown rust on wheat; assay type: in vivo; conditions: Puccinia recondita, topical; Brown rust on wheat; class of control value; read-out: Test E control value class

Row | Compound | pest or weed control at 250 ppm (Plasmopara viticola) [%] | pest or weed control at 250 ppm [1] [%] | pest or weed control at 250 µg/mL (Magnaporthe grisea) [%] | pest or weed control at 250 µg/mL (Phytophthora infestans) [%] | pest or weed control at 250 µg/mL (Alternaia brassicicola) [%] | pest or weed control at 250 µg/mL (Botrytis cinerea) [%] | pest or weed control at 250 µg/mL [2] [%] | pest or weed control at 250 µg/mL (Puccinia recondita) [%]
1 | CCn1c(-c2c(F)cccc2F)c(C(C)(O)CC)cc(Cl)c1=O (stereo not shown) [Compound No. 27, 3-chloro-6-(2,6-difluorophenyl)-1-ethyl-5-(2-hydroxybutan-2-yl)pyridin-2(1H)-one] | > 50 | > 50 | > 50 | < 50 | > 50 | > 50 | > 50 | > 50
2 | CCn1c(-c2c(F)cccc2F)c(C(C)(CC)OC)cc(Cl)c1=O (stereo not shown) [Compound No. 29, 3-chloro-6-(2,6-difluorophenyl)-1-ethyl-5-(2-methoxybutan-2-yl)pyridin-2(1H)-one] | > 50 | > 50 | > 50 | < 50 | > 50 | > 50 | > 50 | > 50
3 | CCn1c(-c2c(F)cccc2F)c(C(C)(F)CC)cc(Cl)c1=O (stereo not shown) [Compound No. 30, 3-chloro-6-(2,6-difluorophenyl)-1-ethyl-5-(2-fluorobutan-2-yl)pyridin-2(1H)-one] | > 50 | > 50 | > 50 | < 50 | > 50 | > 50 | > 50 | > 50
4 | CCn1c(-c2c(F)cccc2F)c(C(O)C(C)C)cc(Cl)c1=O (stereo not shown) [Compound No. 53, 3-chloro-6-(2,6-difluorophenyl)-1-ethyl-5-(1-hydroxy-2-methylpropyl)pyridin-2(1H)-one] | > 50 | > 50 | > 50 | < 50 | > 50 | > 50 | > 50 | > 50
5 | CCn1c(-c2c(F)cc(F)cc2F)c(CN(C)OC)cc(Cl)c1=O [Compound No. 89, 3-chloro-1-ethyl-5-((methoxy(methyl)amino)methyl)-6-(2,4,6-trifluorophenyl)pyridin-2(1H)-one] | < 50 | > 50 | > 50 | < 50 | > 50 | > 50 | > 50 | > 50
6 | CCOc1cc(F)c(-c2c(CN(C)OC)cc(Cl)c(=O)n2CC)c(F)c1 [Compound No. 93, 3-chloro-6-(4-ethoxy-2,6-difluorophenyl)-1-ethyl-5-((methoxy(methyl)amino)methyl)pyridin-2(1H)-one] | > 50 | > 50 | > 50 | < 50 | > 50 | > 50 | > 50 | > 50
7 | CCn1c(-c2ccc(F)cc2Cl)c(CC(C)C)ccc1=O [Compound No. 98, 6-(2-chloro-4-fluorophenyl)-1-ethyl-5-isobutylpyridin-2(1H)-one] | < 50 | < 50 | > 50 | < 50 | > 50 | > 50 | > 50 | > 50
8 | CCn1c(-c2ccc(F)cc2Cl)c(CC(C)C)cc(Cl)c1=O [Compound No. 99, 3-chloro-6-(2-chloro-4-fluorophenyl)-1-ethyl-5-isobutylpyridin-2(1H)-one] | > 50 | > 50 | > 50 | > 50 | > 50 | > 50 | > 50 | > 50

Source: patent US11147272B2, “Pyridone compounds and agricultural and horticultural fungicides comprising the same as active ingredients” (MITSUI CHEMICALS AGRO, INC., priority 2017, dated 2021)
